Test results: PMC12000251, “Evaluation of the Anti-Inflammatory Effects of Novel Fatty Acid-Binding Protein 4 Inhibitors in Microglia” (Journal of Neuroimmune Pharmacology, 2025)
Where two headings read alike, the source gives them in different places.

Tests used:
[1] = target: T1, Recombinantly-expressed human FABP4 (Homo sapiens, UniProt P15090); assay: Isothermal titration calorimetry (ITC) binding affinity to FABP4; conditions: one-site binding model
T1 construct: made in house
Method: A prior fragment screen identified a series of bi-aryl sulfonamides that bound to FABP4. Analogues of this chemical sulfonamide scaffold were then purchased, which led to the identification of the compounds used in this study (MFP-0011462, MFP-0012314, MFP-0012318, and MFP-0012328). Their predicted LogP and tPSA values were calculated in Vortex v2020.1.117658-s (Dotmatics, Boston, MA). The binding affinity of these four compounds was characterised by isothermal titration calorimetry (ITC). ITC was carried out using an iTC200 microcalorimeter (MicroCal, United Kingdom) with a coin shaped sample cell (201.4 μL) with stirring at 1000 rpm at 25°C. Titrations were performed in an ITC buffer (50 mM sodium phosphate, 50 mM NaCl, pH 7.4 with 2% DMSO). Compounds were diluted from concentrated stocks in ITC buffer and loaded into the titration syringe at a concentration of 1 mM, with a final DMSO concentration of 2% (v/v). Recombinantly-expressed human FABP4 was prepared as described previously (Lee et al. [2015a]) in an identical buffer at a protein concentration of 80 μM and placed in the sample cell. A thermal equilibration step at 25°C was followed by an initial 180 s delay step and subsequently an initial 0.2 μL injection. 16 serial injections of the 1 mM compound solution (2 μL each) were made at intervals of 220 s with continuous stirring of the solution in the sample cell. The iTC200 control software was used to operate and acquire raw data as power (microcalories/sec) vs time (min). The data were processed using the Origin 7.0 software (MicroCal) and the binding affinity (KD) was calculated by fitting the data to a one-site binding model.

[2] = system: BV-2 cells; assay: MTT assay of BV-2 cell viability; format: cell-based, mouse; conditions: 24 h; for fold reduction in cell viability: 75 µM and 100 µM of MFP-0012328, 100 µM of the other MFP compounds, range over the compounds; for BV-2 cell viability relative to vehicle control: 2–50 µM, MTT
Method: (§1) BV-2 cells were cultured in DMEM/F-12 media supplemented with 10% (v/v) FBS and 1% (v/v) penicillin/streptomycin, and kept at 37 °C in a humidified incubator ([…], 5% CO2) for all studies. Cells with 80% confluency were used for experiments. At 24 h post-seeding, BV-2 cells were treated with either of the MFP compounds (at concentrations detailed below) or vehicle (0.1% (v/v) DMSO) and 1 µg/mL LPS for a period of 24 h. In some experiments (detailed in Results), BV-2 cells were exposed to MFP compounds for 2 h before a 24 h exposure to LPS and MFP compounds, and in some studies, in the presence of FABP4 siRNA using a 24 h treatment that we have previously employed (Low et al. [2021]). In brief, BV-2 cells were washed once 4 h post-seeding with blank DMEM/F-12 media. siRNA complexes (containing FABP4 siRNA, target sequence 5’-[…]-3’ or AllStar Negative Control siRNA, target sequence proprietary) were added dropwise onto the cells. siRNA complexes were prepared by mixing siRNA and HiPerfect transfection reagent together in FBS-free DMEM/F12 media and incubating for 15 min to allow the siRNA complexes to form. The cells were incubated with the siRNA complex for 5 min, after which, DMEM/F12 media containing FBS was added into each well to dilute the siRNA complexes to 5 nM.
To determine the most appropriate and tolerable concentration of MFP compounds in BV-2 cells, an MTT assay was performed. Following treatment with increasing concentrations of MFP compounds for 24 h, BV-2 cells were rinsed once with PBS prior to being incubated with 0.45 mg/mL MTT reagent for 4 h in a 37 °C, 5% CO2 incubator. After that, the MTT reagent was removed and 150 µL of DMSO was added into all wells for 30 min. The plate was then immediately read on a Perkin-Elmer Enspire fluorescence plate reader (Boston, MA) at 540 nm. Background subtraction was performed before the percentage cell viability was calculated and expressed as a ratio of mean absorbance of MFP-treated cells over mean absorbance of vehicle-treated cells.

[3] = system: LPS-activated BV-2 cells; assay: Intracellular ROS (DCF-DA) in LPS-activated BV-2 cells; format: cell-based, mouse; conditions: 2 h pre-treatment then co-treatment with 1 µg/mL LPS 24 h, vs LPS-only
Method: as §1, with “At 24 h post-seeding, BV-2 cells were treated with either of the MFP compounds (at concentrations detailed below) or vehicle (0.1% (v/v) DMSO) and 1 µg/mL LPS for a period of 24 h.” left out
Intracellular ROS in BV-2 cells, following treatment with MFP compounds and LPS, was detected using the widely-used membrane permeable probe, DCF-DA. Post treatment, BV-2 cells were rinsed once with warm HBSS prior to being incubated with 40 µM of DCF-DA for 30 min at 37°C, 5% CO2. The wells were then rinsed again with HBSS before being read on a Perkin-Elmer Enspire plate reader (λex: 488 nm, λem: 535 nm) as we have reported previously (Kagawa et al. [2023]).

[4] = system: LPS-activated BV-2 cells; assay: Extracellular nitrite (Griess assay) from LPS-activated BV-2 cells; format: cell-based, mouse; conditions: 50 µM, 1 µg/mL LPS 24 h
Method: BV-2 cells were cultured in DMEM/F-12 media supplemented with 10% (v/v) FBS and 1% (v/v) penicillin/streptomycin, and kept at 37 °C in a humidified incubator ([…], 5% CO2) for all studies. Cells with 80% confluency were used for experiments. At 24 h post-seeding, BV-2 cells were treated with either of the MFP compounds (at concentrations detailed below) or vehicle (0.1% (v/v) DMSO) and 1 µg/mL LPS for a period of 24 h. In some experiments (detailed in Results), BV-2 cells were exposed to MFP compounds for 2 h before a 24 h exposure to LPS and MFP compounds, and in some studies, in the presence of FABP4 siRNA using a 24 h treatment that we have previously employed (Low et al. [2021]). […]
For measurement of extracellular nitrite concentrations, the Griess assay was performed as per the manufacturer’s protocol (Molecular Probes, Eugene, OR) with minor changes. […] The absorbance of the media samples was measured on a Perkin-Elmer Enspire plate reader at 548 nm, with nitrite concentrations in media samples obtained by back calculating sample absorbance values back to a standard curve prepared through serial dilution of NaNO2 prepared in media.

[5] = system: LPS-activated BV-2 cells; design: method as in Kagawa et al. [2023]; conditions: 50 µM; ref Kagawa et al. [2023]; cited from earlier work
[6] = target: FABP4; design: method as in Floresta et al. [2017]; conditions: ref Floresta et al. [2017]; cited from earlier work
[7] = system: BV-2 cells; design: method as in Kagawa et al. [2023]; conditions: 50 µM; ref Kagawa et al. [2023]; cited from earlier work
[8] = design: method as in PubChem [2021]; conditions: ref PubChem [2021]; cited from earlier work
[9] = 1D 1H NMR aqueous solubility in phosphate buffer; format: physicochemical; conditions: kinetic from dmso stock, phosphate buffer pH 7.4 in D2O, 0.1% d6-DMSO, 25 °C, range 3.125–100 µM, read-out: Soluble in phosphate buffer up to (concentration)
Method: 1D ^1H NMR was employed to determine the solubility limits of the four MFP compounds and BMS309403 in phosphate buffer. This method has been commonly used to determine compound solubility in the drug discovery setting (Devine et al. [2014]; Lee et al. [2015b]; Lin et al. [2009]). A 100 mM of stock solution of each compound was first prepared in d6-DMSO. These stock solutions were then added into phosphate buffer (50 mM sodium phosphate, 25 mM NaCl, 100 µM of DSS, pH 7.4 in D2O) to achieve a final d6-DMSO concentration of 0.1% (v/v) which is equivalent to the DMSO concentration present in BV-2 cell culture experiments. All samples were inspected to note whether visible precipitates were formed. ^1H NMR spectra for all of the samples were acquired using Bruker Avance III 600 MHz spectrometer at 25 °C. Experimental data were acquired using a relaxation delay of 5 s with 128 scans, and water suppression using an excitation sculpting pulse scheme. Mestrelab Research 13.0 software was used to integrate the proton resonances of the compounds. A well-resolved peak (i.e. no overlaps with any other peaks) in the spectrum of each compound was chosen for integration, relative to the DSS peak (at 0 ppm). […] In addition, the chemical shifts of the resonances in the 1D ^1H NMR spectra were monitored.

[10] = system: LPS-activated BV-2 cells; design: method as in Kagawa et al. [2023]; conditions: five-fold higher concentration than 10 µM; ref Kagawa et al. [2023]; cited from earlier work
[11] = system: LPS-activated BV-2 cells; design: method as in Duffy et al. [2017]; conditions: 50 µM; ref Duffy et al. [2017]; cited from earlier work
[12] = read-out: KD (ITC titration of FABP4, Figure S1)

T1 sequence (P15090 whole entry): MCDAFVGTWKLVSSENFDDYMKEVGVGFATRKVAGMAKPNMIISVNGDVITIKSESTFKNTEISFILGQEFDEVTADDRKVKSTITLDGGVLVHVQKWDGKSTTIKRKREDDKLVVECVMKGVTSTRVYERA

| SMILES | Kd [1, 12] [nM] | fold reduction in cell viability [2] | BV-2 cell viability relative to vehicle control [2] | % reduction in intracellular ROS production (mean ± SEM) ([3]; 10 µM) | % reduction in intracellular ROS production (mean ± SEM) ([3]; 50 µM) | attenuation of LPS-mediated release of nitrite [4] [%] | Kd ([1]; 25°C, pH 7.4, 2% DMSO, read-out: KD against FABP4) [nM] | reduction in ROS levels [5] [%] | Ki [6] [nM] | toxicity to BV-2 cells [7] | LogP [8] | solubility [9] [µM] | reduction in LPS-mediated TNF-α release [10] [%] | reduction in nitrite production [11] [%] |
| --- | --- | --- | --- | --- | --- | --- | --- | --- | --- | --- | --- | --- | --- | --- |
| COc1cc(S(=O)(=O)Nc2cccc(C(=O)O)c2)ccc1Cl [MFP-0011462] | 694 | 0.17–0.27 fold | no significant differences | 49 ± 0.04 (****p < 0.0001) % | 46 ± 0.08 (***p < 0.001) % | 12.2 | – | – | – | – | – | – | – | – |
| CNC(=O)c1ccc(S(=O)(=O)Nc2cccc(C(=O)O)c2)cc1 [MFP-0012318] | – | 0.17–0.27 fold | no significant differences | – | 54 ± 0.09 (****p < 0.0001) % | – | > 100000 | – | – | – | – | – | – | – |
| COc1ccc(S(=O)(=O)Nc2cccc(C(=O)O)c2)cc1Cl [MFP-0012314] | 885 | 0.17–0.27 fold | no significant differences | 40 ± 0.09 (**p < 0.01) % | 42 ± 0.07 (***p < 0.001) % | – | – | – | – | – | – | – | – | – |
| CCc1c(-c2ccccc2)c(-c2ccccc2)nn1-c1ccccc1-c1cccc(OCC(=O)O)c1 [BMS309403, 2-((2'-(5-Ethyl-3,4-diphenyl-1H-pyrazol-1-yl)-[1,1'-biphenyl]-3-yl)oxy)acetic acid] | – | – | – | – | – | – | – | 36.0 | < 2 | does not exhibit toxicity | 7.2 | ≥ 100 | 29.0 | 26.8 |
